Consider eleven compounds from patent publication US9957214B2, “Multifunctional radical quenchers” (ARIZONA BOARD OF REGENTS ON BEHALF OF ARIZONA STATE …, priority 2012, dated 2018).

Test [1] addresses bovine heart mitochondrial complex I (Bos taurus, UniProt P03887+P17694+P42026). Kind of test: Complex I (NADH-Q1 oxidoreductase) inhibition in submitochondrial particles. It is filed as biochemical. The settings on record: submitochondrial particles, 30° C.; for IC50: read-out: Complex I inhibition IC50; for Emax: read-out: Complex I inhibition Imax.
Another test concerns FRDA lymphocytes. In words: Suppression of lipid peroxidation (C11-BODIPY581/591, FACS) in FRDA lymphocytes treated with diethyl maleate. The class given is cell-based. Particulars: Lymphocyte, DEM, read-out: Scavenging activity (%), suppression of lipid peroxidation. From the text:
Several methods for assaying lipid peroxidation in vitro have been developed (Kuypers et al. (1987) Biochim Biophys Acta. 25, 266-274; Pap et al. (1999) FEBS Lett. 453, 278-282; Drummen et al. (2002) Free RadicBiol Med. 33, 473-490). Almost all of these methods are based on inhibition of free radical-induced oxidation reactions. A widely used fluorescence assay for lipid peroxidation uses lipid soluble cis-parinaric acid as a probe. cis-parinaric acid loses its fluorescence (λexc/em: 320/432 nm) upon interaction with peroxyl radicals and retains its fluorescence in the presence of radical quenchers. cis-parinaric acid is, however, air sensitive, photolabile and absorbs light in the UV region of the spectrum (at ˜320 nm). […] In practical terms, the results obtained using cis-parinaric as a probe for lipid peroxidation are confounded due to the overlapping of the compounds emission spectra with the cis-parinaric emission spectrum. C11-BODIPY^581/591 Oxidation to Measure Lipid Peroxidation To overcome the problem of spectral overlap using cis-parinaric acid, a fluorescence assay for lipid peroxidation using a lipophilic probe belonging to the BODIPY class of fluorescent dyes was used C11-BODIPY^581/591 (4,4-difluoro-5(4-phenyl-1,3-butadienyl)-4-bora-3a, 4a-diaza-s-indacene-3-propionic acid) fluorescent shifts from red to green upon oxidation. C11-BODIPY^581/591 (Molecular Probes, Eugene, Oreg., USA) stock solution concentrations were determined by measuring the absorption of C11-BODIPY^581/591 at 582 nm using a molar extinction coefficient of 140,000 mol^−1 cm^−1 (R. P. Haugland, (1999) Handbook of Fluorescent Probes and Research Chemicals, Molecular Probes, Inc., Eugene, Oreg.). The lipid peroxidation inducer 2,2′-Azobis (2-amidino-propane dihydrochloride) (AAPH) and the antioxidant compound α-tocopherol (α-TOH) were obtained from Sigma (St. Louis, Mo., USA). Phospholipid bilayers were prepared from 1-stearoyl-2-oleoyl-phosphatidylcholine (SOPC) and 1,2-dilinoleoyl-phosphatidylcholine (DLPC) and were purchased from Avanti® polar lipids, Inc., (Alabaster, Ala., USA). Preparation of Liposomes Phosphotidylcholine (PC) liposomes were prepared as described before (Guey-Shuang et al. (1982) Lipids. 17, 403-413). Briefly, DLPC (25 mg) were dissolved in chloroform and the solvent was removed by nitrogen evaporation (˜2 hours) to give a thin film of PC in a round bottom flask. The lipid film was hydrated with 50 mL of 10 mM Tris-HCl (pH 7.4), 100 mM KCl, shaken and sonicated for 15 seconds. The liposomes obtained were filtered several times through […] membrane filter. Measurement of C11-BODIPY^581/591 Oxidation C11-BODIPY^581/591 was incorporated into liposomes and oxidized by peroxyl radicals derived from the decomposition of AAPH in the presence and absence of compounds. Liposomes (1 mg/mL), suspended in 10 mM Tris-HCl (pH 7.4), 100 mM KCl, were transferred to a quartz 1 mL cuvette and placed in a Varian Cary Eclipse fluorometer (Varian, Cary, N.C.) equipped with a thermostatted cuvette holder at 40° C. Liposomes were pre-incubated for 10 min with 200 nM C11-BODIPY^581/591 to allow their incorporation into the lipid phase of the liposomes. After the addition of AAPH (10 mM) the decay of the red fluorescence was followed at λ exc=570 nm, λ em=600 nm. Relative fluorescence units were normalized to 100% intensity. Results obtained were verified by repeating experiments N=3 independent experiments. Measurement of C11-BODIPY^581/591 Oxidation in Cell Culture A quantitative FACS analysis of lipid peroxidation of FRDA lymphocytes, which had been treated with diethyl maleate following incubation in the presence and absence of the test compounds, was measured as described (Khdour et al. (2011) Pharmaceut. Res. 28, 2896-2909). Briefly, FRDA lymphocytes (5×10^5 cell/mL) were treated with the test compounds at final concentrations of 5 and 10 μM and incubated at 37° C. for 16 h in a humidified atmosphere containing 5% CO2 in air. […]

For test [2], the system named is Friedreich's ataxia lymphoblast cell line GM15850. Kind of test: Cytoprotection (trypan blue exclusion assay) of DEM-treated FRDA lymphocytes. It is filed as cell-based. The settings on record: Homo sapiens, GM15850, DEM alone 18 ± 10% viability, read-out: Cytoprotection (cell viability, % of untreated control). The method, then:
Cell viability was determined by trypan blue exclusion assay in Friedreich's ataxia lymphoblast cell line GM15850 (Coriell Institute, New Jersey). This technique was used to assess the cytoprotective effects of the tested compounds in cultured cells treated with DEM to induce cell death by GSH depletion. The viability of DEM-treated FRDA cells was determined by their ability to exclude the dye trypan blue. Viable cells exclude trypan blue, whereas non-viable cells take up the dye and stain blue. Briefly, FRDA lymphocytes were grown in RPMI 1640 medium (Gibco) supplemented with 15% fetal calf serum, 2 mM glutamine (HyClone) and 1% penicillin-streptomycin mix (Cellgro). Cells were seeded at a density of 5×10^5 cells/mL and treated with different concentrations of the indicated compounds. Cells were incubated at 37° C. in a humidified atmosphere of 5% CO2 in air for 17 h. After pre-incubation, the cells were treated with 5 mM DEM. Cell viability was determined by staining cells with 0.4% trypan blue using a hemacytometer. At least 500 cells were counted in each experimental group. At the time of assay, <20% of DEM treated cells were viable (trypan blue negative), whereas in non DEM-treated control, >90% cells were viable. Cell viability was expressed as the percentage of control. Data are expressed as means±S.E.M. (n=3).
Cell viability was determined by trypan blue exclusion assay in Friedreich's ataxia lymphoblast cell line GM15850 (Coriell Institute). This technique was used to assess the cytoprotective effects of the compounds in cultured cells treated with diethyl maleate (DEM) to induce cell death by glutathione (GSH) depletion. The viability of DEM-treated FRDA cells was determined by their ability to exclude the dye trypan blue. Viable cells exclude trypan blue, whereas non-viable cells take up the dye and stain blue. […] Benzoquinone analogue 9 afforded greater cyoprotection to FRDA lymphocytes at 5 μM concentration than did the tert-butyl ester 6 (74 vs 50%).

Test [3] relates to NADH oxidase (complexes I, III and IV). In words: NADH oxidase activity (complexes I, III and IV) in submitochondrial particles. The class given is biochemical, bovine.

Sequence of bovine heart mitochondrial complex I (P25708 21-464): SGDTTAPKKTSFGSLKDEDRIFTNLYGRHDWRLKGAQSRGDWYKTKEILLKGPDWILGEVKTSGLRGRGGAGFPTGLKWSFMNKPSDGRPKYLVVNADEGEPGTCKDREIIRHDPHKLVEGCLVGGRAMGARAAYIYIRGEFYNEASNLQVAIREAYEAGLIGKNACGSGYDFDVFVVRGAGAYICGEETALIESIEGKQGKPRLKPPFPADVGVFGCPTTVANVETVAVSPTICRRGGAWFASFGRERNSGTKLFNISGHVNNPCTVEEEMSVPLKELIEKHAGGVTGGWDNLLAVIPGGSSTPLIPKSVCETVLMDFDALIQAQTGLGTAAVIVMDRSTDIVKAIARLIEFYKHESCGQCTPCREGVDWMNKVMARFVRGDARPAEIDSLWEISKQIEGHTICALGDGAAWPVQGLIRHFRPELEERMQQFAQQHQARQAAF
Sequence of bovine heart mitochondrial complex I (P42026 38-216): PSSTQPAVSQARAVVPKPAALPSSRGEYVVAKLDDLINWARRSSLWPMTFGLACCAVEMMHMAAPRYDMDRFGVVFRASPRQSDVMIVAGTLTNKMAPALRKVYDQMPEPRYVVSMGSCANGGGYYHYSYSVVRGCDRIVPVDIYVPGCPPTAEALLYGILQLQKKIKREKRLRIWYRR
Sequence of bovine heart mitochondrial complex I (P17694 34-463): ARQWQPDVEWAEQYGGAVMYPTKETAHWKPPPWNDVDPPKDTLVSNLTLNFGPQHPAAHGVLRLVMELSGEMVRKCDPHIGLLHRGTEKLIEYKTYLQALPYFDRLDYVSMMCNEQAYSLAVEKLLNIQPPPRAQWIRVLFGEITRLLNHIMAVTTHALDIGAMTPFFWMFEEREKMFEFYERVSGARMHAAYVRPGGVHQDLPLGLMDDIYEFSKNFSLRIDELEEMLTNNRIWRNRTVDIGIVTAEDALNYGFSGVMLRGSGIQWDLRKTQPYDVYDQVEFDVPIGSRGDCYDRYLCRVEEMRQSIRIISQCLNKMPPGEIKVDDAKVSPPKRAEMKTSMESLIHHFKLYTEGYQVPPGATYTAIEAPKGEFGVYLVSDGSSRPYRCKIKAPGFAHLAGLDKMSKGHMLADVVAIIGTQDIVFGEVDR
Sequence of bovine heart mitochondrial complex I (P15690 24-727, further chain): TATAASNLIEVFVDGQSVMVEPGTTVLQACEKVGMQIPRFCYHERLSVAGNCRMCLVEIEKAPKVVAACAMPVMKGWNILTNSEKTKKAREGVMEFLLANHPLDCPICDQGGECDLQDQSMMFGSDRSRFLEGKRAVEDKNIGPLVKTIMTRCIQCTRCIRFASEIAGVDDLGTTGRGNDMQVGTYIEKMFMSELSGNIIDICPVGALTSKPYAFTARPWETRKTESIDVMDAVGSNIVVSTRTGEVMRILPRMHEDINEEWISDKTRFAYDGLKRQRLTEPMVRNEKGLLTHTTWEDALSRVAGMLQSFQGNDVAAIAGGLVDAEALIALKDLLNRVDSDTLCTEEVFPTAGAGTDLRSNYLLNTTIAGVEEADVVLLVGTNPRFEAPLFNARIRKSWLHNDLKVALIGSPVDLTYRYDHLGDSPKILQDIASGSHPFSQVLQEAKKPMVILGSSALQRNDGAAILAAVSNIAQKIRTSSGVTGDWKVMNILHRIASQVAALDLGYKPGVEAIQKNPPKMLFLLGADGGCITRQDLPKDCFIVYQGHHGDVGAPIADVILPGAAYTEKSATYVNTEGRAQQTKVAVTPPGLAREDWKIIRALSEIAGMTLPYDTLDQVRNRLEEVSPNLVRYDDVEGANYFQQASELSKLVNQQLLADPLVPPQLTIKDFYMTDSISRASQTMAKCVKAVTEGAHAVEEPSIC
Sequence of bovine heart mitochondrial complex I (P03887 whole entry): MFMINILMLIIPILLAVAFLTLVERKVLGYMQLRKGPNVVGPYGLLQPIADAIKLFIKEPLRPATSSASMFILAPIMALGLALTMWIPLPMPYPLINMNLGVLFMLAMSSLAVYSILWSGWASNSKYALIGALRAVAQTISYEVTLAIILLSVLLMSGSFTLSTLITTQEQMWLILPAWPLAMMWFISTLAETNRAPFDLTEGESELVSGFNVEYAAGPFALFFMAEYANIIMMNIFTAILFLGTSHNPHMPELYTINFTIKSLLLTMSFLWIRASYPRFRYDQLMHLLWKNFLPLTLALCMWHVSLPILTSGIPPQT
Sequence of bovine heart mitochondrial complex I (P42028 37-212, further chain): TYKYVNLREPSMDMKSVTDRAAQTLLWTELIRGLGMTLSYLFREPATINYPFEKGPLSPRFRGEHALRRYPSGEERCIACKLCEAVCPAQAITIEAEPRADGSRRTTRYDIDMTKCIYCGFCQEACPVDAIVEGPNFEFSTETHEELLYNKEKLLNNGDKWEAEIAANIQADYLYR

In the case of `CCCCCCCCCCCCCC1=C(OC)C(=O)C=C(NCCCC(=O)O)C1=O` [Compound 9, 4-(4-methoxy-3,6-dioxo-5-tridecylcyclohexa-1,4-dienylamino)butanoic Acid], in test [1], the IC50 is 1900 ± 100 nM and the Emax was 98 ± 2.8%. Moreover, in the test on FRDA lymphocytes, the inhibition at 5 µM worked out at 41 ± 7.2% and the inhibition at 10 µM came to 51 ± 5%. In test [2], the viability at 5 µM is 74%.

As for `CCCCCCCCCCCCCC1=C(O)C(=O)C=C(NCCCC(=O)OCc2ccccc2)C1=O` [Compound 11, Benzyl 4-(4-hydroxy-3,6-dioxo-5-tridecylcyclohexa-1,4-dienylamino)butanoate], in test [1], the IC50 is 1700 ± 100 nM and the Emax amounted to 70 ± 0.31%. The viability at 5 µM in test [2] came to 48 ± 5.8%.

Regarding `CCCCCCCCCCCCCC1=C(OC)C(=O)C=C(NCCCC(=O)OCc2ccccc2)C1=O` [Compound 12, benzyl 4-(4-methoxy-3,6-dioxo-5-tridecylcyclohexa-1,4-dienylamino)butanoate], the half-maximal inhibitory concentration (IC50) in test [1] came out at 34000 ± 2500 nM. In addition, in test [1], the Emax is no less than 53%. The viability at 5 µM in test [2] was determined as 71 ± 6.4%. In addition, the “NADH oxidase activity (Complex I, III, IV) %” value was determined as 67 ± 6.0% in test [3] (1 μM) and 48 ± 3.0% in test [3] (5 μM).

Consider `CCCCCCCCCCCCCC1=C(O)C(=O)C=C(NCCCC(=O)OCCCC)C1=O` [Compound 14, Butyl 4-(4-hydroxy-3,6-dioxo-5-tridecylcyclohexa-1,4-dienylamino)butanoate], for which, in test [1], the half-inhibitory concentration (IC50) came out at 11000 ± 600 nM and the Emax amounted to 58 ± 4%. Further, the viability at 5 µM in test [2] came to 58 ± 9%.

For `CCCCCCCCCCCCCC1=C(O)C(=O)C=C(NCCCC(=O)OCCCCCC)C1=O` [Compound 17, Hexyl 4-(4-hydroxy-3,6-dioxo-5-tridecylcyclohexa-1,4-dienylamino)butanoate], in test [1], the IC50 came to 2000 ± 400 nM and the Emax worked out at 51 ± 1.4%. Further, in the test with FRDA lymphocytes, the inhibition at 5 µM stood at 9 ± 2.5% and the inhibition at 10 µM was determined as 40 ± 9.9%. Moreover, the viability at 5 µM in test [2] worked out at 49 ± 9.9%.

Regarding `CCCCCCCCCCCCCC1=C(O)C(=O)C=C(N(C)CCCC(=O)OCCCCCC)C1=O` [Compound 23, hexyl 4-((4-hydroxy-3,6-dioxo-5-tridecylcyclohexa-1,4-dienyl)(methyl)amino)-butanoate], the IC50 in test [1] turned out to be 3400 ± 100 nM. Besides, the Emax in test [1] is 78 ± 0.8%. Moreover, the “NADH oxidase activity (Complex I, III, IV) %” value was found to be 82 ± 2.4% in test [3] (1 μM), 36 ± 1.0% in test [3] (5 μM) and 18 ± 0.5% in test [3] (10 μM).

For `CCCCCCCCCCCCCC1=C(OC)C(=O)C=C(N(C)CCCC(=O)OCCCCCC)C1=O` [Compound 24, Hexyl 4-((4-methoxy-3,6-dioxo-5-tridecylcyclohexa-1,4-dienyl)(methyl)amino)butanoate], the half-inhibitory concentration (IC50) in test [1] is 1900 ± 100 nM. The Emax in test [1] worked out at 90 ± 0.7%. The “NADH oxidase activity (Complex I, III, IV) %” value in test [3] (1 μM) was 81 ± 1.5%; in test [3] (5 μM), 33 ± 0.9%; in test [3] (10 μM), 17 ± 0.4%.

Take `CCCCCCCCCCCCCC1=C(O)C(=O)C=C(N(C)C)C1=O` [Compound 25, 5-(dimethylamino)-2-hydroxy-3-tridecylcyclohexa-2,5-diene-1,4-dione]: in test [1], the IC50 worked out at 1500 ± 100 nM and the Emax is 90 ± 3.4%. Besides, in test [2], the viability at 0.1 µM was determined as 21 ± 3%, the viability at 0.5 µM came to 18 ± 4% and the viability at 2.5 µM came to 24 ± 3%. In test [3] (1 μM), the “NADH oxidase activity (Complex I, III, IV) %” value is 18 ± 0.5%. In test [3] (5 μM), the “NADH oxidase activity (Complex I, III, IV) %” value was found to be 6.6 ± 0.1%. The “NADH oxidase activity (Complex I, III, IV) %” value in test [3] (10 μM) is recorded as 5.0 ± 0.1%.

Consider `CCCCCCCCCCCCCC1=C(OC)C(=O)C=C(N(C)C)C1=O` [Compound 26, 5-(dimethylamino)-2-methoxy-3-tridecylcyclohexa-2,5-diene-1,4-dione], for which, in test [1], the IC50 came to 1600 ± 30 nM and the Emax was determined as 90 ± 1.1%. In test [2], the viability at 0.1 µM is 53 ± 9%, the viability at 0.5 µM came to 66 ± 3% and the viability at 2.5 µM stood at 90 ± 3%. Moreover, the “NADH oxidase activity (Complex I, III, IV) %” value in test [3] (1 μM) turned out to be 70 ± 2.1%. Also, the “NADH oxidase activity (Complex I, III, IV) %” value in test [3] (5 μM) was 34 ± 0.6%. In addition, the “NADH oxidase activity (Complex I, III, IV) %” value in test [3] (10 μM) amounted to 15 ± 0.4%.

Take `CCCCCCCCCCCCCC1=C(O)C(=O)C=C(N(C)CCCC(=O)OC(C)(C)C)C1=O` [Compound 29, tert-butyl 4-((4-hydroxy-3,6-dioxo-5-tridecylcyclohexa-1,4-dienyl)(methyl)amino)-butanoate]: in test [2], the viability at 1 µM is 21% and the viability at 2.5 µM came out at 74 ± 4%.

For `CCCCCCCCCCCCCC1=C(OC)C(=O)C=C(N(C)CCCC(=O)OC(C)(C)C)C1=O` [Compound 30, tert-butyl 4-((4-methoxy-3,6-dioxo-5-tridecylcyclohexa-1,4-dienyl)(methyl)amino)-butanoate], in the test with FRDA lymphocytes, the inhibition at 5 µM was 97% and the inhibition at 10 µM came out at 100%. For the same compound, in test [2], the viability at 1 µM came to 64 ± 15% and the viability at 2.5 µM turned out to be 82 ± 5%.

A word on the IC50: it is the midpoint of a concentration-inhibition curve. The viability is a per cent measure of how many cells are alive, often set against a control.
